Patent publication US8815864B2, “Indanyloxydihydrobenzofuranylacetic acids” (Boehringer Ingelheim International GmbH, priority 2012, dated 2014)

Target: human GPR40 receptor (Homo sapiens, UniProt O14842)
Assay: IP1 accumulation measurements using the IPOne assay system
Type: cell-based
Conditions: 1321N1 cells stably expressing human GPR40; stimulation 1 h at 37° C.
Protocol: IP1 accumulation measurements using the IPOne assay system—1321N1 cells stably expressing human GPR40 receptor (Euroscreen, Belgium) are seeded 24 h before the assay in white 384-well plates in culture medium containing 10% FCS, 1% Na-Pyruvate and 400 μg/mL G418. IP1 is assayed according to the manufacturer's description (Cisbio Bioassays, France). In brief, the assay is started by substitution of the culture medium by stimulation buffer (Hepes 10 mM, CaCl2 1 mM, MgCl2 0.5 mM, KCl 4.2 mM, NaCl 146 mM, glucose 5.5 mM and LiCl 50 mM, pH 7.4). Cells are stimulated for 1 h at 37° C., 5% CO2 by addition of the compounds that are diluted in stimulation buffer containing LiCl. Assays are stopped by adding HTRF-conjugates (IP1-d2 and Anti-IP1 cryptate Tb) and lysis buffer, provided by the manufacturer. After an incubation time of 1 h at room temperature plates are measured using an EnVision™, Perkin Elmer. The obtained fluorescence ratios at 665/615 […] are then used to calculate the pEC50 values using Assay Explorer 3.3 Software (Accelrys, Inc.) by interpolation using an IP1 reference curve and subsequent sigmoidal curve fitting allowing for a variable hill slope.

Sequence of human GPR40 receptor (O14842 whole entry): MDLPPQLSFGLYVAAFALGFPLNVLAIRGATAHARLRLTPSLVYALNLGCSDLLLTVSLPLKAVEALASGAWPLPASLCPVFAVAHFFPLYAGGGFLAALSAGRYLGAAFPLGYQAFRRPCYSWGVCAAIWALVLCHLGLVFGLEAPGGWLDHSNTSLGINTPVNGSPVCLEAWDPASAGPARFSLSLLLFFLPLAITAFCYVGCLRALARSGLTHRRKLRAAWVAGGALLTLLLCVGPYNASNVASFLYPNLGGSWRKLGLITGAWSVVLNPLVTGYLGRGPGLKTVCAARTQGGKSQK

| SMILES | EC50 [nM] |
| --- | --- |
| O=C(O)C[C@@H]1COc2cc(O[C@@H]3CCc4c(Oc5ccccc5)ccc(F)c43)ccc21 [Example 1, {(S)-6-[(R)-7-Fluoro-4-phenoxy-indan-1-yloxy]-2,3-dihydro-benzofuran-3-yl}-acetic acid] | 4 |
| COc1cccc(Oc2ccc(F)c3c2CC[C@H]3Oc2ccc3c(c2)OC[C@H]3CC(=O)O)c1 [Example 2, {(S)-6-[(R)-7-Fluoro-4-(3-methoxy-phenoxy)-indan-1-yloxy]-2,3-dihydro-benzofuran-3-yl}-acetic acid] | 6 |
| COc1ccc(Oc2ccc(F)c3c2CC[C@H]3Oc2ccc3c(c2)OC[C@H]3CC(=O)O)cc1 [Example 3, {(S)-6-[(R)-7-Fluoro-4-(4-methoxy-phenoxy)-indan-1-yloxy]-2,3-dihydro-benzofuran-3-yl}-acetic acid] | 3 |
| Cc1ccccc1Oc1ccc(F)c2c1CC[C@H]2Oc1ccc2c(c1)OC[C@H]2CC(=O)O [Example 4, {(S)-6-[(R)-7-Fluoro-4-(2-methyl-phenoxy)-indan-1-yloxy]-2,3-dihydro-benzofuran-3-yl}-acetic acid] | 6 |
| Cc1cccc(C)c1Oc1ccc(F)c2c1CC[C@H]2Oc1ccc2c(c1)OC[C@H]2CC(=O)O [Example 5, {(S)-6-[(R)-7-Fluoro-4-(2,6-dimethyl-phenoxy)-indan-1-yloxy]-2,3-dihydro-benzofuran-3-yl}-acetic acid] | 70 |
| O=C(O)C[C@@H]1COc2cc(O[C@@H]3CCc4c(Oc5cccnc5)ccc(F)c43)ccc21 [Example 6, {(S)-6-[(R)-7-Fluoro-4-pyrid-3-yloxy-indan-1-yloxy]-2,3-dihydro-benzofuran-3-yl}-acetic acid] | 33 |
| O=C(O)C[C@@H]1COc2cc(O[C@@H]3CCc4c(Oc5ccccn5)ccc(F)c43)ccc21 [Example 7, {(S)-6-[(R)-7-Fluoro-4-pyrid-2-yloxy-indan-1-yloxy]-2,3-dihydro-benzofuran-3-yl}-acetic acid] | 32 |
| N#Cc1ccc(Oc2ccc(F)c3c2CC[C@H]3Oc2ccc3c(c2)OC[C@H]3CC(=O)O)cc1 [Example 8, {(S)-6-[(R)-4-(4-Cyano-phenoxy)-7-fluoro-indan-1-yloxy]-2,3-dihydro-benzofuran-3-yl}-acetic acid] | 4 |
| Cc1nccc(Oc2ccc(F)c3c2CC[C@H]3Oc2ccc3c(c2)OC[C@H]3CC(=O)O)n1 [Example 9, {(S)-6-[(R)-7-Fluoro-4-(2-methyl-pyrimid-4-yloxy)-indan-1-yloxy]-2,3-dihydro-benzofuran-3-yl}-acetic acid] | 155 |
| O=C(O)C[C@@H]1COc2cc(O[C@@H]3CCc4c(Oc5cnccn5)ccc(F)c43)ccc21 [Example 10, {(S)-6-[(R)-7-Fluoro-4-pyrazin-2-yloxy-indan-1-yloxy]-2,3-dihydro-benzofuran-3-yl}-acetic acid] | 35 |
| O=C(O)C[C@@H]1COc2cc(O[C@@H]3CCc4c(Oc5ccncc5)ccc(F)c43)ccc21 [Example 11, {(S)-6-[(R)-7-Fluoro-4-pyrid-4-yloxy-indan-1-yloxy]-2,3-dihydro-benzofuran-3-yl}-acetic acid] | 18 |
| O=C(O)C[C@@H]1COc2cc(O[C@@H]3CCc4c(Oc5nc6ccccc6s5)ccc(F)c43)ccc21 [Example 12, {(S)-6-[(R)-4-Benzothiazol-2-yloxy-7-fluoro-indan-1-yloxy]-2,3-dihydro-benzofuran-3-yl}-acetic acid] | 12 |
| Cn1c(Oc2ccc(F)c3c2CC[C@H]3Oc2ccc3c(c2)OC[C@H]3CC(=O)O)nc2ccccc21 [Example 13, {(S)-6-[(R)-7-Fluoro-4-(1-methyl-1H-benzoimidazol-2-yloxy)-indan-1-yloxy]-2,3-dihydro-benzofuran-3-yl}-acetic acid] | 216 |
| O=C(O)C[C@@H]1COc2cc(O[C@@H]3CCc4c(Oc5ccc(C(F)(F)F)cn5)ccc(F)c43)ccc21 [Example 14, {(S)-6-[(R)-7-Fluoro-4-(5-trifluoromethyl-pyrid-2-yloxy)-indan-1-yloxy]-2,3-dihydro-benzofuran-3-yl}-acetic acid] | 26 |
| Cc1cccc(Oc2ccc(F)c3c2CC[C@H]3Oc2ccc3c(c2)OC[C@H]3CC(=O)O)n1 [Example 15, {(S)-6-[(R)-7-Fluoro-4-(6-methyl-pyrid-2-yloxy)-indan-1-yloxy]-2,3-dihydro-benzofuran-3-yl}-acetic acid] | 31 |
| COc1ccc(Oc2ccc(F)c3c2CC[C@H]3Oc2ccc3c(c2)OC[C@H]3CC(=O)O)nn1 [Example 16, {(S)-6-[(R)-7-Fluoro-4-(6-methoxy-pyridazin-3-yloxy)-indan-1-yloxy]-2,3-dihydro-benzofuran-3-yl}-acetic acid] | 138 |

| SMILES | EC50 [nM] |
| --- | --- |
| N#Cc1ccccc1Oc1ccc(F)c2c1CC[C@H]2Oc1ccc2c(c1)OC[C@H]2CC(=O)O [Example 17, {(S)-6-[(R)-4-(2-Cyano-phenoxy)-7-fluoro-indan-1-yloxy]-2,3-dihydro-benzofuran-3-yl}-acetic acid] | 4 |
| CS(=O)(=O)c1ccc(Oc2ccc(F)c3c2CC[C@H]3Oc2ccc3c(c2)OC[C@H]3CC(=O)O)cc1 [Example 18, {(S)-6-[(R)-7-Fluoro-4-(4-methylsulfonyl-phenoxy)-indan-1-yloxy]-2,3-dihydro-benzofuran-3-yl}-acetic acid] | 41 |
| O=C(O)C[C@@H]1COc2cc(O[C@@H]3CCc4c(Oc5nc6ccccc6o5)ccc(F)c43)ccc21 [Example 19, {(S)-6-[(R)-4-Benzoxazol-2-yloxy-7-fluoro-indan-1-yloxy]-2,3-dihydro-benzofuran-3-yl}-acetic acid] | 13 |
| O=C(O)C[C@@H]1COc2cc(O[C@@H]3CCc4c(Oc5ccc6ncccc6c5)ccc(F)c43)ccc21 [Example 20, {(S)-6-[(R)-7-Fluoro-4-Quinolin-6-yloxy-indan-1-yloxy]-2,3-dihydro-benzofuran-3-yl}-acetic acid] | 6 |
| Cc1cc(Oc2ccc(F)c3c2CC[C@H]3Oc2ccc3c(c2)OC[C@H]3CC(=O)O)ccc1C#N [Example 21, {(S)-6-[(R)-4-(4-Cyano-3-methyl-phenoxy)-7-fluoro-4-indan-1-yloxy]-2,3-dihydro-benzofuran-3-yl}-acetic acid] | 4 |
| N#Cc1ccc(Oc2ccc(F)c3c2CC[C@H]3Oc2ccc3c(c2)OC[C@H]3CC(=O)O)c(F)c1 [Example 22, {(S)-6-[(R)-4-(4-Cyano-2-fluoro-phenoxy)-7-fluoro-indan-1-yloxy]-2,3-dihydro-benzofuran-3-yl}-acetic acid] | 3 |
| Cc1ccc(Oc2ccc(F)c3c2CC[C@H]3Oc2ccc3c(c2)OC[C@H]3CC(=O)O)c(C#N)c1 [Example 23, {(S)-6-[(R)-4-(2-Cyano-4-methyl-phenoxy)-7-fluoro-indan-1-yloxy]-2,3-dihydro-benzofuran-3-yl}-acetic acid] | 7 |
| Cc1cc(C#N)ccc1Oc1ccc(F)c2c1CC[C@H]2Oc1ccc2c(c1)OC[C@H]2CC(=O)O [Example 24, {(S)-6-[(R)-4-(4-Cyano-2-methyl-phenoxy)-7-fluoro-indan-1-yloxy]-2,3-dihydro-benzofuran-3-yl}-acetic acid] | 3 |
| O=C(O)C[C@@H]1COc2cc(O[C@@H]3CCc4c(Oc5ccc(OC(F)F)cn5)ccc(F)c43)ccc21 [Example 25, {(S)-6-[(R)-4-(5-Difluoromethoxy-pyrid-2-yloxy)-7-fluoro-indan-1-yloxy]-2,3-dihydro-benzofuran-3-yl}-acetic acid] | 13 |
| N#Cc1cc(OC(F)(F)F)ccc1Oc1ccc(F)c2c1CC[C@H]2Oc1ccc2c(c1)OC[C@H]2CC(=O)O [Example 26, {(S)-6-[(R)-4-(2-Cyano-4-trifluoromethoxy-phenoxy)-7-fluoro-indan-1-yloxy]-2,3-dihydro-benzofuran-3-yl}-acetic acid] | 30 |
| N#Cc1cccc(Oc2ccc(F)c3c2CC[C@H]3Oc2ccc3c(c2)OC[C@H]3CC(=O)O)c1 [Example 27, {(S)-6-[(R)-4-(3-Cyano-phenoxy)-7-fluoro-indan-1-yloxy]-2,3-dihydro-benzofuran-3-yl}-acetic acid] | 7 |
| O=C(O)C[C@@H]1COc2cc(O[C@@H]3CCc4c(Oc5ccc(CO)c(F)c5)ccc(F)c43)ccc21 [Example 28, {(S)-6-[(R)-7-Fluoro-4-(3-fluoro-4-hydroxymethyl-phenoxy)-indan-1-yloxy]-2,3-dihydro-benzofuran-3-yl}-acetic acid] | 8 |
| N#Cc1ccc(Oc2ccc(F)c3c2CC[C@H]3Oc2ccc3c(c2)OC[C@H]3CC(=O)O)cc1F [Example 29, {(S)-6-[(R)-4-(4-Cyano-3-fluoro-phenoxy)-7-fluoro-indan-1-yloxy]-2,3-dihydro-benzofuran-3-yl}-acetic acid] | 6 |
| N#Cc1ccc(F)cc1Oc1ccc(F)c2c1CC[C@H]2Oc1ccc2c(c1)OC[C@H]2CC(=O)O [Example 30, {(S)-6-[(R)-4-(2-Cyano-5-fluoro-phenoxy)-7-fluoro-indan-1-yloxy]-2,3-dihydro-benzofuran-3-yl}-acetic acid] | 11 |
| CN(C)c1ccc(Oc2ccc(F)c3c2CC[C@H]3Oc2ccc3c(c2)OC[C@H]3CC(=O)O)cn1 [Example 31] | 120 |
| O=C(O)C[C@@H]1COc2cc(O[C@@H]3CCc4c(Oc5ccnc(C(F)(F)F)c5)ccc(F)c43)ccc21 [Example 32, {(S)-6-[(R)-7-Fluoro-4-(2-trifluoromethyl-pyrid-4-yloxy)-indan-1-yloxy]-2,3-dihydro-benzofuran-3}-acetic acid] | 6 |
